Among the data in a melting point compilation (Tetko et al.; mined from patent text by program, amines drawn as free bases though some values may be those of a salt) are melting point values, retold here.

SMILES strings stand for the structures.

As usually defined, the melting point is the temperature of the solid-liquid transition. Consider `COc1ccc(S(=O)(=O)NCC2CCN(C[C@H]3COc4ccc(Cl)cc4O3)CC2)cc1OC`, for which the melting point lay in the range of 99 to 101 °C. The value for `N#CSc1nccnc1Cl` was 70 to 71 °C.

For the compound `COC(=O)c1cc(Cl)c(Cl)c(Cl)c1`, the melting point was 111 to 112 °C. For `CCOc1nccc(C(=O)OC)c1N` the value was 59 to 60.5 °C. `Cn1cc(C2=C(c3cn(-c4ccccc4)c4ccccc34)C(=O)NC2=O)c2ccccc21` came in with a melting point of 135 to 137 °C. The value for `CCOC(=O)CCCCn1c(=O)[nH]c2ccc([N+](=O)[O-])cc2c1=O` was 173 to 174 °C. For the compound `FC(F)(F)c1ccc(CN2CC=C(/C=C/c3ccccc3)CC2)cc1`, the melting point lay in the range of 125 to 127 °C.

On to `O=C(Nc1cnccn1)N1CCN(c2nc(-c3ccccc3)cs2)CC1`, for which the melting point was in the range of 134 to 135 °C. For `O=C(OC(c1ccc(Cl)c2nc3n(c12)CCCN3c1ccc(Cl)cc1Cl)C1CC1)C1CC1` (stereo not given), the melting point fell in the range of 168 to 170 °C.

Compound `Cc1ccc(S(=O)(=O)Cc2ccc(C(C)(C)N)cc2)cc1C` yielded a melting point of 129 to 130 °C.

Compound `c1ccc(-c2ccc(Cc3ccco3)[nH]2)cc1` registered a melting point of 79 to 80 °C. For `CC(=O)SCC(CC(C)C)C(=O)NCCCCCCCC(=O)N[C@@H](CCCNC(=N)N)C(=O)O` (stereo not given in full) the value was 85 to 102 °C; for `NC(=O)c1ccc([N+](=O)[O-])c(C(N)=O)c1`, 287 to 289 °C. The value for `Cc1cc2c(c3oc4ccccc4c(=O)c13)CC(C(=O)O)O2` (stereo not given) was 231 to 234 °C. For `CN1Cc2cccnc2C(N2CCN(C(=O)Cc3ccncc3)CC2)c2ccc(Cl)cc21` (stereo not given) the value was 83 to 87 °C; for `O=C(O)c1cc2cc([N+](=O)[O-])ccc2[nH]c1=O`, greater than 310 °C; for `CCCc1c(OCC(O)COc2ccc3ccc(C(=O)O)cc3c2CCC)ccc(C(C)=O)c1O` (stereo not given), 125 to 126 °C. In the case of `CCOC(=O)C1=C(C)NN=C(CC)C1c1cccc(Cl)c1` (stereo not given), the melting point is 112 °C. The value for `CC(C)(C)OC(=O)Nc1ccc(-c2ccccc2F)cc1NC(=O)CC(=O)c1cccc([N+](=O)[O-])c1` was 167 °C. For `N#Cc1ccc2c(c1)Sc1ccc([N+](=O)[O-])cc1C=C2` the value was 234 to 236 °C. The value for `Clc1ccnc2ncnn12` was 190 °C; that for `CCOC(=O)c1nc2n(c(=O)c1O)CCOC2` was 172 to 174 °C; that for `O=c1ncc(Cl)cn1CSc1ccc([N+](=O)[O-])cc1` was 165 °C.

Take `CCN1CNC(=N[N+](=O)[O-])N(Cc2ccc(Cl)nc2)C1`: the melting point fell in the range of 124 to 125 °C.

As for `CC(C)(C)OC(=O)NC(Cc1ccccc1)C(O)CNCC(O)C(Cc1ccccc1)NC(=O)OC(C)(C)CCCNCc1ccccc1` (stereo not given), the melting point was in the range of 128 to 132 °C. For `O=C(CCNCc1cc(F)cc(F)c1)Nc1cccc2c1C(=O)c1c(NC(=O)CCNCc3cc(F)cc(F)c3)cccc1C2=O` the value was 190 to 191 °C; for `Nc1cccc2nccnc12`, 87 to 90 °C; for `COc1cc(Nc2nccc(N3CCC(O)CC3)n2)ccc1-n1cnc(C)c1`, 197 to 200 °C.

The compound `CCC(CC)COc1ccc(-n2cc(C(=O)O)cn2)cc1C#N` yielded a melting point of 180 to 182 °C. For `O=C(COc1ccccc1)N[C@@H](Cc1ccccc1)C(=O)CSCc1ccsc1` the value was 80 to 81 °C; for `Cc1sc2c(I)c3ccccc3c(-c3ccc(OS(C)(=O)=O)cc3)c2c1C`, 212 to 213 °C. For `CCCSc1sc(C(=O)O)c2c1-c1c(cnn1C)CC2` the value was 216 to 217 °C; for `O=C1Nc2ccccc2C12COc1cc3c(cc12)OCCO3` (stereo not given), greater than 250 °C; for `CC(=O)N1CCN(CCOc2ccc(C3CCN(C4=Nn5c(nnc5C(F)(F)F)CC4)CC3)cc2)CC1`, 127 °C. The value for `CC(c1oc2ccccc2c(=O)c1-c1cccc(F)c1)n1ncc2c(Cl)ncnc21` (stereo not given) was 197 to 201 °C. `CCNC(=O)/C=C(C)/C=C/C(F)=C(C)/C=C/c1c(C)sc(C)c1C` registered a melting point of 167 to 171 °C. As to `O=C(O)c1cccc2nc3n(c12)CCC3`, the melting point fell in the range of 310 to 312 °C.

`CC(=O)SCc1ccc(I)cc1`: the melting point was in the range of 40 to 41 °C.

For the compound `COc1ccc(Cn2nc3oc(=O)cc(C)c3c2C)cc1`, the melting point fell in the range of 169 to 172 °C.

Turning to `CCc1c(-c2ccc(N(C)C)nn2)ssc1=S`, the melting point stood at 160 °C. For `CCCCCCCCCCCCCCCCN(C(=O)c1ccc(Cl)c([N+](=O)[O-])c1)c1ccccc1[N+](=O)[O-]` the value was 83 to 85 °C. For `Cc1c(N)cc(C)c2c(=O)[nH]ccc12` the value was 242 °C. `COC(=O)c1ccc(NC(=O)CC(=O)C(C)C)cc1` yielded a melting point of 54 to 56 °C.

Turning to `COc1cc(O)cc(CN2C(=O)N(c3cnn(Cc4c(C)noc4C)c3)C(=O)C2(C)C)c1`, the melting point lay within 72 to 74 °C. For `CCOC(=O)CNc1ccc(OCc2ccccc2)cc1` the value was 70 °C; for `CC(=O)Nc1nccc2cc3cccnc3n12`, 160 to 161 °C. The value for `N#Cc1ccc(C=Cc2ccc(OCC(O)CO)cc2)cc1` (stereo not given) was 172 to 173 °C; that for `OC(=S)CC1c2ccccc2Oc2ccccc21` was 131 to 132 °C.

`CNC(=O)c1cc(-c2ccc(OC)cc2)nn(CC=Cc2ccc(Cl)cc2)c1=O` registered a melting point of 184 to 185 °C.

For `COc1ccnc(CSc2nc3cc(OC(F)F)ccc3[nH]2)c1OC`, the melting point lay in the range of 104 to 108 °C. The value for `O=S(=O)(Nc1ccccc1)c1ccc(-c2cnn3c(O)ncnc23)cc1` was 274 to 277 °C; that for `COC(=O)c1ccc(OCc2cccc(OCc3ccc4ccccc4n3)c2)c(OC)c1` was 100 to 101 °C.

Compound `CCOC(=O)CC(CCCNC(=O)c1csc(NC(=O)NCc2ccccc2)n1)c1ccccc1` (racemic) returned a melting point of 93 °C. The value for `CCC[C@@H]([C@@H](CC(C)C)C(=O)N[C@@H](CCCNCN=N[N+](=O)[O-])C(=O)Nc1nccs1)N(O)C=O` was 130 to 136 °C; that for `Cc1nccc(N2CCC(CN3CCN(S(=O)(=O)c4ccc(C(F)(F)F)cc4)CC3)CC2)n1` was 135 to 136 °C. For `COC(=O)c1nc(-c2ccc(F)c(C)c2F)cc(NC(C)=O)c1Cl` the value was 152 to 153 °C. Turning to `COc1c(Cl)cc2c(=O)[nH]c(=O)[nH]c2c1OC`, the melting point was 272 to 273 °C.

`NC(=O)Cc1csc(-c2cccc(Br)c2)n1` gave a melting point of 150 to 152 °C.

In turn, `COC(=O)N(C)N=C(c1ccc(Cl)cc1)C(C)(C)C` gave a melting point of 58 to 60 °C. The value for `COC(=O)c1ccc(OC)c(I)n1` was 175 to 178 °C; that for `CCOC(=O)C1=CNC2=C(C(=O)OC)CCC(C)N2C1=O` (stereo not given) was 136 to 139 °C. For `O=C1c2ccc(SCc3ccccc3)cc2CC1Br` (stereo not given) the value was 88 °C; for `O=C(Oc1ccc(Cl)c2c(=O)c3ccccc3sc12)c1ccccc1`, 177 to 178 °C; for `CS(=O)(=O)c1cnc(NC(=O)c2cccc(O)c2)s1`, 271 to 272 °C.

`COC(=O)C1=C(O)c2ccc3ccccc3c2S(=O)(=O)N1` had a melting point of 218 to 220 °C.
